Results taken from patent US5457092A, “Methods of promoting bone growth in mammals comprising administration of modified parathyroid hormone” (Gesellschaft fur Biotechnologische Forschung mbH (GBF), priority 1987, dated 1995).

Tests used:
[1] = system: ROS 17/2.8 osteoblast-like cells; assay: DNA synthesis in ROS 17/2.8 osteoblast-like cells; format: cell-based, rat
[2] = system: ROS 17/2.8 osteoblast-like cells; assay: CK specific activity in ROS 17/2.8 osteoblast-like cells; format: cell-based, rat
[3] = system: ROS 17/2.8 osteoblast-like cells; assay: Cyclic AMP production in ROS 17/2.8 osteoblast-like cells; format: cell-based, rat
Protocol: When cultures of the widely used model for osteoblasts, the osteoblast-likeclone of rat osteosarcoma, ROS 17/2.8 (Endocrinology (Baltimore), 107 (1980) 1494-1503=12; Majeska et al.), were incubated with full-length PTH and PTH fragments (Table 4), cyclic AMP production was stimulated only by bPTH(1-84) and hPTH(1-34), whereas hPTH(25-39), hPTH(27-48), hPTH(28-48) and hPTH(34-47) were ineffective.

[4] = system: chondrocytes from sterna of 16-day-old embryonic chicks; assay: Stimulation of DNA synthesis in chondrocytes by PTH fragments (Table 1); format: cell-based, chick; details: for [^3 H]thymidine incorporation: 4 h; for E/C: stimulated / non-induced control cells
Protocol: Chondrocytes were isolated from sterna of 16-day-old embryonic chicks according to J. Biol. Chem., 261 (1986) 7997-8001 (10; Yasui et al.) with some modifications. Collagenase was dissolved in Hanks' balanced salt solution (0.4 mM Na2 HPO4, 140 mN NaCl, 5.3 mM KCl, 0.4 mM MgSO4, 1.3 mM CaCl2, 0.4 mM KH2 PO4, 0.5 mM MglC2, 5 mM glucose, 0.05% gentamicin) at a concentration of 286 units/ml. Sterna were treated repeatedly for 30 min with collagenase solution at 37° C. Cells first released by this procedure were discarded because of their very poor responsiveness towards PTH. The collagenase treatment was subsequently repeated leading to a highly homogenous cell population of chondrocytes. The cells obtained by a second collagenase treatment were collected by centrifugation (1000 rpm, 10 min), washed twice with medium (Dulbecco's modified Eagle's medium, GIBCO, supplemented with NaHCO3 (45 mM), glutamine (2 mM), penicillin G/streptomycin (65 mg/1 and 100 mg/l, respectively), Hepes (10 mM, pH 7.2), and FCS (10% v/v) and counted.
The DNA synthesis rate was assayed in monolayer culture by the incorporation of ]^3 H]thymidine into perchloric acid-precipitable material. […] After 17 h, the medium was replaced by 200 μl of serum-free medium. After 4 days, chondrocytes were incubated for 4 h with the appropriate effector and 1μ Ci of [^3 H]thymidine. Subsequently, medium was removed and the cells were washed twice with 200 μl of phosphate-buffered saline (PBS: 137 mM NaCl, 2.7 mN KCl, 1.5 mM KH2 PO4, 0.8 mN Na2 HPO4, pH 7.0). Then cells were lysed by 100 μl of 2% (v/v) Nonidet P- 40 and 2% (w/v) sodium dodecyl sulfate treatment and the perchloric acid-insoluble material was precipitated by adding an equal volume of ice-cold 2% (w/v) perchloric acid in the presence of 1% herring sperm DNA as carrier. After storage for 10 min at -20° C., the precipitated material of each well was transferred to glass fiber filters with a Scatron--As semiautomatic cell harvester. Filters were dried at 80° C. for 20 min, transferred into scintillation vials, and 2 ml of scintillation mixture (scintillator 299; United Technology Pachard) were added. Radioactivity of the samples was determined with a β counter (Minimax; United Technology Pachard). Each test consisted of 5 up to 10 identically treated wells and was repeated at least twice with freshly prepared chondrocytes.
The incorporation of [^3 H]thymidine by non-induced control cells and by stimulated cells is shown by C and E, respectively. The results shown mean ±S.E. for n parallel cell cultures.

[5] = system: osteoblast enriched rat embryo calvaria cell cultures; assay: CK specific activity in rat embryo calvaria cell cultures; format: cell-based; details: for increase of CK activity (in words): treated for 24 h; for CK specific activity, effect of fragment (experimental value/control value): 100 nM, 24 h, control 457 ± 46 nmol/min per mg of protein
Protocol: (§1) FIG. 10 is a graphical representation showing the dose dependent stimulation by bPTH (1-84) of osteoblast enriched rat embryo calvaria cell cultures. Experimental details for the determination of cyclic AMP (.quadrature.) (15 min after stimulation) and incorporation of [^3 H]thymidine into DNA ( ) and CK ( ) specific activity (24 h after stimulation) are given below. The results are means ±S.E.M., N≥5. In several cases the S.E.M. was less than the size of the symbol. Control values were: cyclic AMP, 25±5 pmol/mg of protein; DNA, 240±30 c.p.m./μg of DNA; CK, 200±20 nmol/min per mg of protein. Statistical significance of differences between treated and corresponding control groups by Student's T test: *P<0.05; **P<0.01.
(§2) Rat calvaria cultures were treated with fragments of PTH derived from the central portion of the molecule.

[6] = system: osteoblast enriched rat embryo calvaria cell cultures; assay: DNA synthesis ([3H]thymidine incorporation) in rat embryo calvaria cell cultures; format: cell-based; details: 100 nM; 24 h; control 624 ± 73 c.p.m./μg of DNA
Protocol: as §1

[7] = system: osteoblast enriched rat embryo calvaria cell cultures; assay: Cyclic AMP production in rat embryo calvaria cell cultures; format: cell-based; details: 100 nM; 15 min; control 29 ± 2.9 pmol/mg of protein
Protocol: as §1, §2

With “hPTH(24-47): PTH fragment 24-47 as printed; probably a misprint of hPTH(34-47) (LRKKLQDVHNFVALGAPLAPRDAG; Parathyroid hormone; UniProt P01270 55-78, looked up, fragment)” the “stimulation of DNA synthesis (in words)” value [1] was “stimulated by all of the cell fragments tested except” and the “stimulation of CK activity (in words)” value [2] was “stimulated by all of the cell fragments tested except”.

In the case of “hPTH(27-48): PTH fragment 27-48 as printed; probably a misprint of hPTH(28-47) (KLQDVHNFVALGAPLAPRDAGS; Parathyroid hormone; UniProt P01270 58-79, looked up, fragment)”, the “stimulation of cyclic AMP production (in words)” value [3] was “ineffective”.

“hPTH(28-39): PTH fragment 28-39, human source (LQDVHNFVALGA; Parathyroid hormone; UniProt P01270 59-70, looked up, fragment)” was tested, and the “[^3 H]thymidine incorporation” value ([4]; 7.6 × 10^-4 mol/l, control 324 ± 18) was 387 ± 41 cpm, the E/C ([4]; 7.6 × 10^-4 mol/l) was 1.19 and the “[^3 H]thymidine incorporation” value ([4]; 7.6 × 10^-5 mol/l, control 324 ± 18) was 399 ± 47 cpm. For the same substance, the E/C ([4]; 7.6 × 10^-5 mol/l) was 1.23, the “[^3 H]thymidine incorporation” value ([4]; 7.6 × 10^-6 mol/l, control 324 ± 18) was 324 ± 45 cpm and the E/C ([4]; 7.6 × 10^-6 mol/l) was 1.00. The “[^3 H]thymidine incorporation” value ([4]; 7.6 × 10^-7 mol/l, control 324 ± 18) was 473 ± 74 cpm, the E/C ([4]; 7.6 × 10^-7 mol/l) was 1.46 and the “[^3 H]thymidine incorporation” value ([4]; 7.6 × 10^-8 mol/l, control 324 ± 18) was 319 ± 39 cpm. It also gave an E/C ([4]; 7.6 × 10^-8 mol/l) of 0.97.

“hPTH(29-39): PTH fragment 29-39 as printed; probably a misprint of hPTH(25-39) (QDVHNFVALGA; Parathyroid hormone; UniProt P01270 60-70, looked up, fragment)” was tested, and the “increase of CK activity (in words)” value [5] was “maximally active”.

With “hPTH(29-47): PTH fragment 29-47, human source (QDVHNFVALGAPLAPRDAG; Parathyroid hormone; UniProt P01270 60-78, looked up, fragment)” the “[^3 H]thymidine incorporation” value ([4]; 4.8 × 10^-5 mol/l, control 139 ± 6) was 273 ± 30 cpm, the E/C ([4]; 4.8 × 10^-5 mol/l) was 1.96 and the “[^3 H]thymidine incorporation” value ([4]; 4.8 × 10^-6 mol/l, control 139 ± 6) was 225 ± 20 cpm. The E/C ([4]; 4.8 × 10^-6 mol/l) was 1.62, the “[^3 H]thymidine incorporation” value ([4]; 4.8 × 10^-7 mol/l, control 139 ± 6) was 273 ± 33 cpm and the E/C ([4]; 4.8 × 10^-7 mol/l) was 1.96. For the same substance, the “[^3 H]thymidine incorporation” value ([4]; 4.8 × 10^-8 mol/l, control 139 ± 6) was 138 ± 15 cpm, the E/C ([4]; 4.8 × 10^-8 mol/l) was 0.99 and the “CK specific activity, effect of fragment (experimental value/control value)” value [5] was 1.67 ± 0.13. The “increase of CK activity (in words)” value [5] was “stimulatory but to a lesser degree”, the “[3H)Thymidine incorporation, effect of fragment (experimental value/control value)” value [6] was 1.96 ± 0.14 and the “Cyclic AMP concentration, effect of fragment (experimental value/control value)” value [7] was 0.57 ± 0.47.

For “hPTH(30-47): PTH fragment 30-47, human source; comparative example (DVHNFVALGAPLAPRDAG; Parathyroid hormone; UniProt P01270 61-78, looked up, fragment) [reference compound]”, the “[^3 H]thymidine incorporation” value ([4]; 5.1 × 10^-5 mol/l, control 139 ± 6) was 248 ± 31 cpm, the E/C ([4]; 5.1 × 10^-5 mol/l) was 1.78 and the “[^3 H]thymidine incorporation” value ([4]; 5.1 × 10^-6 mol/l, control 139 ± 6) was 193 ± 20 cpm. The E/C ([4]; 5.1 × 10^-6 mol/l) was 1.39, the “[^3 H]thymidine incorporation” value ([4]; 5.1 × 10^-7 mol/l, control 139 ± 6) was 222 ± 19 cpm and the E/C ([4]; 5.1 × 10^-7 mol/l) was 1.60. The “[^3 H]thymidine incorporation” value ([4]; 5.1 × 10^-8 mol/l, control 139 ± 6) was 169 ± 23 cpm, the E/C ([4]; 5.1 × 10^-8 mol/l) was 1.22 and the “CK specific activity, effect of fragment (experimental value/control value)” value [5] was 1.27 ± 0.03. The “increase of CK activity (in words)” value [5] was “slightly stimulatory”, the “[3H)Thymidine incorporation, effect of fragment (experimental value/control value)” value [6] was 1.86 ± 0.18 and the “Cyclic AMP concentration, effect of fragment (experimental value/control value)” value [7] was 1.00 ± 0.22.

For “hPTH(31-47): PTH fragment 31-47, human source; comparative example (VHNFVALGAPLAPRDAG; Parathyroid hormone; UniProt P01270 62-78, looked up, fragment) [reference compound]”, the “[^3 H]thymidine incorporation” value ([4]; 5.3 × 10^-5 mol/l, control 139 ± 6) was 176 ± 8 cpm, the E/C ([4]; 5.3 × 10^-5 mol/l) was 1.27 and the “[^3 H]thymidine incorporation” value ([4]; 5.3 × 10^-6 mol/l, control 139 ± 6) was 178 ± 35 cpm. The E/C ([4]; 5.3 × 10^-6 mol/l) was 1.28, the “[^3 H]thymidine incorporation” value ([4]; 5.3 × 10^-7 mol/l, control 139 ± 6) was 178 ± 24 cpm and the E/C ([4]; 5.3 × 10^-7 mol/l) was 1.28. For the same substance, the “[^3 H]thymidine incorporation” value ([4]; 5.3 × 10^-8 mol/l, control 139 ± 6) was 165 ± 20 cpm, the E/C ([4]; 5.3 × 10^-8 mol/l) was 1.19 and the “increase of CK activity (in words)” value [5] was “inactive”.

In the case of “hPTH(32-47): PTH fragment 32-47 as printed; at this place probably a misprint of hPTH(28-47) (HNFVALGAPLAPRDAG; Parathyroid hormone; UniProt P01270 63-78, looked up, fragment)”, the “increase of CK activity (in words)” value [5] was “maximally active”.

“hPTH(33-47): PTH fragment 33-47, human source; inactive fragment (NFVALGAPLAPRDAG; Parathyroid hormone; UniProt P01270 64-78, looked up, fragment) [reference compound]” was tested, and the “increase of CK activity (in words)” value [5] was “inactive”.
